What is called IC50 is the point on the concentration scale where inhibition reaches its midpoint. Broadly, the EC50 is the concentration at which the effect is half-maximal.

These results are taken from US8653258B2, “Compositions for regulating or modulating quorum sensing in bacteria, methods of using the compounds, and methods of regulating or modulating quorum sensing in bacteria” (Georgia State University Research Foundation, Inc., priority 2007, dated 2014).

Each structure is given as a SMILES string. Several values for one entry are separate records, joined by “and”; a condition that tells them apart may be missing. Identical values can stand only once. Like-named read-outs stand apart in the source and are kept apart here.

The test system of assay [1] is AI-2-mediated gene expressions. The note with it: at about 323 μM; cited from earlier work.
In assay [2] the test system is AI-2-mediated quorum sensing. Description: microbe, parasite or virus in culture. In kind it is cell-based, Vibrio harveyi. The note with it: tested at least 3 times. The method, then:
The candidate compounds identified as described in Example 1, above, were tested for their ability to inhibit AI-2 induced quorum sensing using the MM32 strain of V. harveyi. […] The V. harveyi bacteria can also emit luminescence upon AI-2 induced quorum sensing stimulation. Therefore, the ability of the “virtually” identified compounds to inhibit luminescence production in the presence of DPD and boric acid was examined.
MM32 bacteria were streak-seeded on fresh LM plates and cultured in the presence of kanamycin (50 μg/mL) and chloramphenicol (10 μg/mL). Colonies appeared after overnight incubation at 30° C. A single colony was picked up from the LM plate. This strain was grown for 16 hrs with aeration at 175 r.p.m and at 30° C. in 2 mL of Autoinducer Bioassay (AB) medium with antibiotics (kanamycin 50 μg/mL and chloramphenicol 10 μg/mL). The culture was then diluted to an OD600 0.7. This preinoculum was grown in AB-Fe medium with 1.2 mM of iron to OD600 1.0-1.1. The resulting inoculum culture was then diluted 5000-fold in fresh AB medium.
Solutions of the test compounds in AB medium were prepared in 96-well plates. To these solutions, freshly synthesized DPD (pH=7) solution was added for a final concentration of 5 μM. Boric acid was added to give a final concentration of 1 mM. After the addition of bacteria in AB medium, the micro plates were covered with a non-toxic plate sealer and incubated at 30° C. with aeration for 3-4 hrs.
In an initial round of screening, the concentration of the test compounds was fixed at 100 μg/mL (about 200-600 μM).

Assay [3] relates to V. harveyi. Description: Bacterial growth curves (doubling time). In kind it is cell-based, Vibrio harveyi.
Description: To make sure that the observed luminescence intensity changes were not due to inhibition of bacterial growth, the effect of these boronic acids on bacterial growth was also studied.
In assay [4] the test system is cysteines in protein. To be noted: read-out: EC50, covalent modification of cysteines in protein; cited from earlier work.
Where [5] appears, read: V. harveyi MM32, DPD 5 μM, boric acid 1 mM, read-out: IC50 value, inhibition of AI-2-mediated quorum sensing (V. harveyi luminescence).
[6] abbreviates: compound at 125 μM, control 79.4 min.
[7] abbreviates: Vibrio harveyi, read-out: IC50 value, inhibition of AI-2-mediated quorum sensing (V. harveyi luminescence), V. harveyi MM32, DPD 5 μM, boric acid 1 mM.

For the compound `CCCCC1=C(Br)/C(=C/Br)OC1=O` [(5Z)-4-bromo-5-(bromomethylene)-3-butyl-2(5H)-furanone], the “inhibition of AI-2-mediated gene expressions” value in assay [1] was “inhibit many AI-2-mediated gene expressions”.
Take `OB(O)c1cncc2ccccc12` [Compound 4-IQBA]: in assay [2] (setting [5]), the half-maximal inhibitory concentration (IC50) is 66 µM and 66.1 µM. Moreover, the doubling time in assay [3] (setting [6]) is 80.4 min.
As to `OB(O)c1cccc2cnccc12` [Compound 5-IQBA], the IC50 in assay [2] (setting [5]) was 30 µM and 30.4 µM. In addition, the doubling time in assay [3] (setting [6]) is listed as 99.2 min.
Consider `CC(C)OC(=S)CS(=O)(=O)c1ccccc1` [Compound 23], for which the half-inhibitory concentration (IC50) in assay [2] (setting [7]) came to 33 ± 4 µM.
`Oc1cccc(O)c1O` [Compound 61, pyrogallol]: the IC50 in assay [2] (setting [7]) amounted to 2 µM. In addition, the “effect on bacterial growth” value in assay [3] is given as “not due to growth inhibition”. The compound further registered a doubling time in assay [3] (compound at 5 μM, control 78.9 min) of 78.4 min.
For `c1ccc2c(c1)Nc1ccccc1S2` [Compound 62, phenothiazine], the half-inhibitory concentration (IC50) in assay [2] (setting [7]) worked out at 10 µM; in assay [2] (read-out: IC50 value, inhibition of AI-2-mediated quorum sensing (V. harveyi luminescence), V. harveyi MM32, DPD 5 μM, boric acid 1 mM) it was 10.7 ± 3.7 µM. The “effect on bacterial growth” value in assay [3] was “not due to growth inhibition”. Also, the doubling time in assay [3] (compound at 20 μM, control 78.9 min) turned out to be 72.3 min.
`Oc1ccccc1O` [Compound 63, catechol]: the IC50 in assay [2] (setting [7]) was 59 ± 9 µM.
The same measure, in the same setting: for `CCOC(=S)CS(=O)(=O)c1ccc(Br)cc1` [Compound H14] the value was 13.8 ± 2 µM; for `CCOC(=S)CS(=O)(=O)c1ccc(OC)cc1` [Compound H18], 26 ± 3.5 µM.
Still for that read-out and setting: then `CCOC(=O)CS(=O)(=O)c1ccc(-c2ccc3c(c2)OCCO3)cc1` [Compound H20], with 157 ± 43 µM.
On to `CCOC(=O)CS(=O)(=O)c1ccc(-c2ccc(C)cc2)cc1` [Compound H21], for which, in assay [2] (setting [7]), the IC50 was 8.2 ± 2.3 µM.
With `CCOC(=O)CS(=O)(=O)c1ccc(-c2ccc(C(N)=O)cc2)cc1` [Compound H24], the IC50 in assay [2] (setting [7]) stood at 31.3 ± 23 µM.
The same measure, in the same setting: for `CCCS(=O)(=O)CC(=S)OCC` [Compound H26] the value was 21.6 ± 2.9 µM.
Still for that read-out and setting: for `CCOC(=O)CS(=O)(=O)c1cccc(Br)c1` [Compound H28] the value was 162 ± 22 µM.
`O=CC=Cc1ccccc1` [cinnamaldehyde]: the half-maximal effective concentration (EC50) in assay [4] is 19 µM.
